Test results as given in the NIST ThermoML archive (doi:10.1016/j.jct.2010.06.009).

Assay: activity coefficient (dimensionless); of the first substance listed, at infinite dilution; xn = mol fraction of the nth substance listed
Conditions: 101 kPa, Liquid, Chromatography, x1 = 0

Cc1ccccc1C [1,2-dimethylbenzene] + CCCCC[n+]1ccccc1.O=S(=O)([N-]S(=O)(=O)C(F)(F)F)C(F)(F)F
Conditions | activity coefficient
303.1 K | 1.57
312.8 K | 1.61
323.4 K | 1.63
333.4 K | 1.65
343.3 K | 1.66
353.5 K | 1.69

Cc1ccccc1C [1,2-dimethylbenzene] + CCCC[n+]1ccccc1.O=S(=O)([N-]S(=O)(=O)C(F)(F)F)C(F)(F)F
Conditions | activity coefficient
302.8 K | 2.22
312.5 K | 2.25
323.3 K | 2.26
333.3 K | 2.28
343.2 K | 2.28
353.2 K | 2.3

Cc1ccccc1C [1,2-dimethylbenzene] + CC[n+]1ccccc1.O=S(=O)([N-]S(=O)(=O)C(F)(F)F)C(F)(F)F
Conditions | activity coefficient
303.1 K | 2.66
313.2 K | 2.67
323.3 K | 2.68
333.1 K | 2.7
343.1 K | 2.7
353.1 K | 2.71

Cc1cccc(C)c1 [1,3-dimethylbenzene] + CCCCC[n+]1ccccc1.O=S(=O)([N-]S(=O)(=O)C(F)(F)F)C(F)(F)F
Conditions | activity coefficient
303 K | 1.76
312.8 K | 1.8
323.5 K | 1.81
333.4 K | 1.84
343.3 K | 1.87
353.3 K | 1.91

Cc1cccc(C)c1 [1,3-dimethylbenzene] + CCCC[n+]1ccccc1.O=S(=O)([N-]S(=O)(=O)C(F)(F)F)C(F)(F)F
Conditions | activity coefficient
302.8 K | 2.47
312.5 K | 2.49
323.3 K | 2.5
333.3 K | 2.51
343.1 K | 2.52
353.3 K | 2.53

Cc1cccc(C)c1 [1,3-dimethylbenzene] + CC[n+]1ccccc1.O=S(=O)([N-]S(=O)(=O)C(F)(F)F)C(F)(F)F
Conditions | activity coefficient
302.8 K | 3.07
313.2 K | 3.09
323.2 K | 3.1
333.1 K | 3.11
343 K | 3.12
353.1 K | 3.13

Cc1ccc(C)cc1 [1,4-dimethylbenzene] + CCCCC[n+]1ccccc1.O=S(=O)([N-]S(=O)(=O)C(F)(F)F)C(F)(F)F
Conditions | activity coefficient
303.1 K | 1.74
312.7 K | 1.79
323.5 K | 1.81
333.4 K | 1.84
343.3 K | 1.87
353.3 K | 1.91

Cc1ccc(C)cc1 [1,4-dimethylbenzene] + CCCC[n+]1ccccc1.O=S(=O)([N-]S(=O)(=O)C(F)(F)F)C(F)(F)F
Conditions | activity coefficient
302.8 K | 2.45
312.5 K | 2.48
323.3 K | 2.49
333.3 K | 2.52
343.1 K | 2.54
353.3 K | 2.54

Cc1ccc(C)cc1 [1,4-dimethylbenzene] + CC[n+]1ccccc1.O=S(=O)([N-]S(=O)(=O)C(F)(F)F)C(F)(F)F
Conditions | activity coefficient
302.6 K | 3.04
313.3 K | 3.05
323.2 K | 3.07
333.1 K | 3.08
343 K | 3.09
353.1 K | 3.11

C=CCCCCCCCC [1-decene] + CCCCC[n+]1ccccc1.O=S(=O)([N-]S(=O)(=O)C(F)(F)F)C(F)(F)F
Conditions | activity coefficient
303.1 K | 26.4
312.6 K | 25.1
322.6 K | 23.8
333.4 K | 22.1
343.4 K | 20.6
353.4 K | 19.3

C=CCCCCCCCC [1-decene] + CCCC[n+]1ccccc1.O=S(=O)([N-]S(=O)(=O)C(F)(F)F)C(F)(F)F
Conditions | activity coefficient
302.5 K | 46.7
313.2 K | 40.1
322.8 K | 39.6
332.8 K | 34.6
342.9 K | 31.2
353 K | 28.1

C=CCCCCCCCC [1-decene] + CC[n+]1ccccc1.O=S(=O)([N-]S(=O)(=O)C(F)(F)F)C(F)(F)F
Conditions | activity coefficient
302.9 K | 85.8
313.2 K | 77.2
323.2 K | 70
332.8 K | 62.7
342.9 K | 54.5
353 K | 46.9

C#CCCCCC [1-heptyne] + CCCCC[n+]1ccccc1.O=S(=O)([N-]S(=O)(=O)C(F)(F)F)C(F)(F)F
Conditions | activity coefficient
302.8 K | 4.17
313.6 K | 4
323.4 K | 3.87
333.3 K | 3.74
343.3 K | 3.58
353.3 K | 3.42

C#CCCCCC [1-heptyne] + CCCC[n+]1ccccc1.O=S(=O)([N-]S(=O)(=O)C(F)(F)F)C(F)(F)F
Conditions | activity coefficient
302.8 K | 5.63
313.3 K | 5.49
323.2 K | 5.29
333.1 K | 5.03
343.1 K | 4.79
353.1 K | 4.58

C#CCCCCC [1-heptyne] + CC[n+]1ccccc1.O=S(=O)([N-]S(=O)(=O)C(F)(F)F)C(F)(F)F
Conditions | activity coefficient
302.5 K | 8.41
313.2 K | 7.96
323 K | 7.5
333 K | 7.06
342.9 K | 6.53
353 K | 5.92

C#CCCCC [1-hexyne] + CCCCC[n+]1ccccc1.O=S(=O)([N-]S(=O)(=O)C(F)(F)F)C(F)(F)F
Conditions | activity coefficient
302.8 K | 2.92
313.6 K | 2.82
323.4 K | 2.66
333.3 K | 2.53
343.3 K | 2.42
353.3 K | 2.29

C#CCCCC [1-hexyne] + CCCC[n+]1ccccc1.O=S(=O)([N-]S(=O)(=O)C(F)(F)F)C(F)(F)F
Conditions | activity coefficient
303.5 K | 3.92
313.3 K | 3.72
323.2 K | 3.5
333.1 K | 3.29
343.1 K | 3.04
353.1 K | 2.82

C#CCCCC [1-hexyne] + CC[n+]1ccccc1.O=S(=O)([N-]S(=O)(=O)C(F)(F)F)C(F)(F)F
Conditions | activity coefficient
302.5 K | 5.26
313.2 K | 4.95
323 K | 4.63
333 K | 4.18
342.9 K | 3.88
353 K | 3.47

C#CCCCCCC [1-octyne] + CCCCC[n+]1ccccc1.O=S(=O)([N-]S(=O)(=O)C(F)(F)F)C(F)(F)F
Conditions | activity coefficient
302.8 K | 5.62
313.6 K | 5.47
323.4 K | 5.34
333.3 K | 5.22
343.4 K | 5.07
353.3 K | 4.94

C#CCCCCCC [1-octyne] + CCCC[n+]1ccccc1.O=S(=O)([N-]S(=O)(=O)C(F)(F)F)C(F)(F)F
Conditions | activity coefficient
302.6 K | 8.1
313.4 K | 7.82
323.2 K | 7.6
333.1 K | 7.34
343.1 K | 7.05
353.1 K | 6.8

C#CCCCCCC [1-octyne] + CC[n+]1ccccc1.O=S(=O)([N-]S(=O)(=O)C(F)(F)F)C(F)(F)F
Conditions | activity coefficient
302.5 K | 12.9
313.2 K | 12.3
323 K | 11.8
333 K | 11.1
342.9 K | 10.4
353 K | 9.74

C#CCCC [1-pentyne] + CCCCC[n+]1ccccc1.O=S(=O)([N-]S(=O)(=O)C(F)(F)F)C(F)(F)F
Conditions | activity coefficient
302.8 K | 2.01
313.5 K | 1.88
323.4 K | 1.75
333.3 K | 1.62
343.2 K | 1.5
353.4 K | 1.39

C#CCCC [1-pentyne] + CCCC[n+]1ccccc1.O=S(=O)([N-]S(=O)(=O)C(F)(F)F)C(F)(F)F
Conditions | activity coefficient
302.2 K | 2.67
313.4 K | 2.4
323.2 K | 2.23
333.1 K | 2.04
343 K | 1.88
353.1 K | 1.68

C#CCCC [1-pentyne] + CC[n+]1ccccc1.O=S(=O)([N-]S(=O)(=O)C(F)(F)F)C(F)(F)F
Conditions | activity coefficient
302.5 K | 3.2
313.2 K | 3
323 K | 2.73
333 K | 2.52
342.9 K | 2.23
353.1 K | 2.03

c1ccccc1 [benzene] + CCCCC[n+]1ccccc1.O=S(=O)([N-]S(=O)(=O)C(F)(F)F)C(F)(F)F
Conditions | activity coefficient
303.2 K | 0.98
312.6 K | 0.99
323.2 K | 1.01
333.1 K | 1.02
343.3 K | 1.03
353.5 K | 1.04

c1ccccc1 [benzene] + CCCC[n+]1ccccc1.O=S(=O)([N-]S(=O)(=O)C(F)(F)F)C(F)(F)F
Conditions | activity coefficient
302.8 K | 1.33
312.6 K | 1.34
323.2 K | 1.35
333.2 K | 1.35
343.1 K | 1.35
353.3 K | 1.36

c1ccccc1 [benzene] + CC[n+]1ccccc1.O=S(=O)([N-]S(=O)(=O)C(F)(F)F)C(F)(F)F
Conditions | activity coefficient
302.6 K | 1.5
313 K | 1.49
323.2 K | 1.47
333.1 K | 1.43
343 K | 1.39
353.1 K | 1.36

C1CCCCC1 [cyclohexane] + CCCCC[n+]1ccccc1.O=S(=O)([N-]S(=O)(=O)C(F)(F)F)C(F)(F)F
Conditions | activity coefficient
303.2 K | 7.35
312.7 K | 6.67
323.4 K | 5.91
333.3 K | 5.3
343.3 K | 4.66
353.3 K | 4.06

C1CCCCC1 [cyclohexane] + CCCC[n+]1ccccc1.O=S(=O)([N-]S(=O)(=O)C(F)(F)F)C(F)(F)F
Conditions | activity coefficient
302.9 K | 9.66
312.4 K | 8.64
323.2 K | 7.88
333.2 K | 6.7
343.3 K | 5.61
353.4 K | 4.72

C1CCCCC1 [cyclohexane] + CC[n+]1ccccc1.O=S(=O)([N-]S(=O)(=O)C(F)(F)F)C(F)(F)F
Conditions | activity coefficient
302.8 K | 11.4
313.3 K | 9.56
323.1 K | 8.04
333 K | 6.76
342.9 K | 5.63
353 K | 4.65

CCO [ethanol] + CCCCC[n+]1ccccc1.O=S(=O)([N-]S(=O)(=O)C(F)(F)F)C(F)(F)F
Conditions | activity coefficient
302.8 K | 2.09
313.5 K | 1.86
323.4 K | 1.67
333.3 K | 1.5
343.2 K | 1.35
353.4 K | 1.19

CCO [ethanol] + CCCC[n+]1ccccc1.O=S(=O)([N-]S(=O)(=O)C(F)(F)F)C(F)(F)F
Conditions | activity coefficient
302.5 K | 2.67
313.4 K | 2.26
323.1 K | 2.02
333.1 K | 1.8
343.1 K | 1.61
352.9 K | 1.45

CCO [ethanol] + CC[n+]1ccccc1.O=S(=O)([N-]S(=O)(=O)C(F)(F)F)C(F)(F)F
Conditions | activity coefficient
302.5 K | 2.63
313.1 K | 2.36
323 K | 2.13
332.9 K | 1.91
342.9 K | 1.71
353 K | 1.54

CCc1ccccc1 [ethylbenzene] + CCCCC[n+]1ccccc1.O=S(=O)([N-]S(=O)(=O)C(F)(F)F)C(F)(F)F
Conditions | activity coefficient
303.1 K | 1.93
312.8 K | 1.95
323.4 K | 1.96
333.4 K | 1.98
343.3 K | 1.99
353.5 K | 2

CCc1ccccc1 [ethylbenzene] + CCCC[n+]1ccccc1.O=S(=O)([N-]S(=O)(=O)C(F)(F)F)C(F)(F)F
Conditions | activity coefficient
302.8 K | 2.74
312.6 K | 2.75
323.3 K | 2.77
333.2 K | 2.77
343.2 K | 2.78
353.3 K | 2.78

CCc1ccccc1 [ethylbenzene] + CC[n+]1ccccc1.O=S(=O)([N-]S(=O)(=O)C(F)(F)F)C(F)(F)F
Conditions | activity coefficient
303.4 K | 3.34
313.1 K | 3.36
323.2 K | 3.37
333.1 K | 3.39
343 K | 3.4
353.1 K | 3.41

CCCCCCC [heptane] + CCCCC[n+]1ccccc1.O=S(=O)([N-]S(=O)(=O)C(F)(F)F)C(F)(F)F
Conditions | activity coefficient
303.2 K | 16.5
312.7 K | 14.6
323.4 K | 12.6
333.3 K | 11
343.3 K | 9.35
353.3 K | 7.98

CCCCCCC [heptane] + CCCC[n+]1ccccc1.O=S(=O)([N-]S(=O)(=O)C(F)(F)F)C(F)(F)F
Conditions | activity coefficient
302.8 K | 21.8
312.4 K | 19.4
323.2 K | 16.8
333.2 K | 13.8
343.3 K | 11.4
353.4 K | 9.35

CCCCCCC [heptane] + CC[n+]1ccccc1.O=S(=O)([N-]S(=O)(=O)C(F)(F)F)C(F)(F)F
Conditions | activity coefficient
302.8 K | 29.3
313.3 K | 23.1
323.1 K | 18.6
333 K | 14.7
342.9 K | 11.8
353 K | 9.37

C=CCCCC [hex-1-ene] + CCCCC[n+]1ccccc1.O=S(=O)([N-]S(=O)(=O)C(F)(F)F)C(F)(F)F
Conditions | activity coefficient
302.9 K | 6.22
312.8 K | 5.46
322.6 K | 4.84
333.4 K | 4.17
343.4 K | 3.55
353.4 K | 3.08
